Measured values taken from patent publication US11278575B2, “Compositions and methods for the treatment of demyelinating conditions” (Duke University, priority 2018, dated 2022).

Assays:
DUOC-01 cells [1] = assay: Stability of day 21 DUOC-01 cells incubated with HC or Dex: viability (AOPI) and total viable cell count; format: cell-based, human; settings: for Averaged total viable cell numbers: DUOC-01 cells in Ringers, HC 3 mg/ml or Dex 25 ng/ml, average of six experiments
Experimental: FIG. 1 illustrates that HC increases the viability of DUOC-01 cells over time. Viability was measured by AOPI using the Nexcelom Cellometer Auto 2000 (n=6 samples per time point; 2-way ANOVA p<0.001 for treatment factor; Tukey's post-hoc[…]).
(§1) First, to test stability, day +21 DUOC-01 cells were harvested into ringers lactate and incubated with HC for up to 4 hours to determine whether there was any change in viability or stability.
(§2) DUOC-01 cells were cultured using standard procedures from cryopreserved and thawed cord blood units, then harvested on day 21 and re-suspended in Ringers. After initial count and viability, the cell suspension was divided into three conditions: (1) Ringer's solution, (2) 3 mg/ml HC, (3) 25 ng/ml Dex.
(§3) Based on previous stability studies, the cells were incubated for 4 hours at room temperature and characterized every hour for 4 hours. The viability of DUOC-01 cells over time was consistently greater with cells incubated with HC compared to DUOC-01 cells incubated with dexamethasone or Ringer's solution (FIG. 1).

DUOC-01 cells [2] = assay: Surface marker expression of DUOC-01 cells by flow cytometry after adding HC or Dex; format: cell-based, human; settings: up to 4 hours after adding HC (3 mg/ml) or Dex (25 ng/ml)
Experimental: DUOC-01 cells were collected 4 hours after adding HC or dexamethasone (Dex). The expression of CD45 (FIG. 2A), CD11b (FIG. 2B), Trem2 (FIG. 2C), and CD14 (FIG. 2D) were analyzed by flow cytometry (n=6 per condition).
as §1, §2, §3

[3] = tested on: corpus callosum of NSG mice treated with cuprizone; assay: Cuprizone demyelination model, myelination score by LFB-PAS staining; format: in vivo; settings: one week after injection into corpus callosum of CPZ-treated mice; 1×10^5 cells; cells incubated 2 hours in 3 mg/ml HC where HC is used
From the text: Myelination score based on LFB-PAS staining of mice one week after treatment of CPZ-treated mice with, Ringer's, Ringers+HC, DUOC-01 cells, or DUOC-01 cells exposed to HC (1×10^5 cell injected). […] Two independent, blinded readers scored coded LFB-PAS stained sections at the mid-line corpus callosum area, between zero and 3. Data are presented as mean ±SEM (ANOVA for cells P<0.001; n=9-16 mice per group, *P<0.05, Tukey's post-hoc test; pooled 2 independent experiments). […] DUOC-01 cells were cultured via standard procedures from frozen cord blood units in the GMP facility and harvested on day 21. After initial count and viability, the cell suspension was split into two conditions at a concentration of 20,000 cells/μl: (1) Ringers, and (2) Ringers +3 mg/ml HC. Based on previous stability studies, the cells were incubated in HC for 2 hours at room temperature prior to injections. To determine if HC would affect the ability of DUOC-01 cells to promote remyelination, Ringer's solution or DUOC-01 cells was injected into the corpus callosum of NSG mice treated with cuprizone, as previously described (Saha et al. JCI Insight 2016). One week following treatment, brains were harvested and analysis of myelination by LFB-PAS staining was conducted.

SMILES | Averaged total viable cell numbers (DUOC-01 cells [1]; 1 hr at room temperature) | Averaged total viable cell numbers (DUOC-01 cells [1]; 2 hr at room temperature) | Averaged total viable cell numbers (DUOC-01 cells [1]; 3 hr at room temperature) | Averaged total viable cell numbers (DUOC-01 cells [1]; 4 hr at room temperature) | Expression level of DUOC-01 surface markers (CD45, CD14, TREM2, CD11b) (DUOC-01 cells [2]) | Remyelination (myelination score, LFB-PAS, mid-line corpus callosum) [3] | Viability of DUOC-01 cells over time (AOPI) (DUOC-01 cells [1]; up to 4 hours, 3 mg/ml HC, compared with dexamethasone or Ringer's solution)
C[C@@H]1C[C@H]2[C@@H]3CCC4=CC(=O)C=C[C@]4(C)[C@@]3(F)[C@@H](O)C[C@]2(C)[C@@]1(O)C(=O)CO [Dexamethazone, dexamethasone] | 923,563 | 813,750 | 821,250 | 706,875 |  |  | 
C[C@]12CCC(=O)C=C1CC[C@@H]1[C@@H]2[C@@H](O)C[C@@]2(C)[C@H]1CC[C@]2(O)C(=O)CO [HC, hydrocortisone] | 959,688 | 821,667 | 910,604 | 742,000 | did not change the expression level | did not inhibit the ability of DUOC-01 cells to promote remyelination | improved the viability
